Reference: paper PMC5951806, “Rapid labelling and covalent inhibition of intracellular native proteins using ligand-directed N-acyl-N-alkyl sulfonamide” (Nature Communications, 2018)
Where “and” joins values, the source holds several entries; their conditions need not be identical. Equal values may be shown once.

What was measured:
Experiment in all cases: TMT LC-MSMS of 11-labelled proteins
Type in all cases: cell-based
[1] = biological target: T1, ADP/ATP translocase 3 (SLC25A6) (Homo sapiens, UniProt P12236)
T1 sequence (P12236 1-298): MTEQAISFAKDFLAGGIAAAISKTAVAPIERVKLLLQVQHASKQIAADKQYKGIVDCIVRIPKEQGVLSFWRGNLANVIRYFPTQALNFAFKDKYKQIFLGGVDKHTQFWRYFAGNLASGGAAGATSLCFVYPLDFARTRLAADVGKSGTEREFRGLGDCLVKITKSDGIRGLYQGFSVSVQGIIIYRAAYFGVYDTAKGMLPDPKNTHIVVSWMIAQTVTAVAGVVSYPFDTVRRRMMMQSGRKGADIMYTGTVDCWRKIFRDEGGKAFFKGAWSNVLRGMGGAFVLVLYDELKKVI

[2] = biological target: Heat shock protein HSP 90-beta (HSP90AB1) (Homo sapiens, UniProt P08238)
[3] = biological target: Tubulin alpha-1B chain (TUBA1B) (Homo sapiens, UniProt P68363)
[4] = biological target: Tubulin beta-4B chain (TUBB4B) (Homo sapiens, UniProt P68371)
[5] = sheet Exp1, SKBR3 cells, 11 0.5 µM 3 h vs DMSO
[6] = sheet Exp1, SKBR3 cells, 11 0.5 µM 3 h vs with PU-H71 10 µM
[7] = sheet Merged, SKBR3 cells, 11 0.5 µM 3 h vs DMSO
[8] = sheet Merged, SKBR3 cells, 11 0.5 µM 3 h vs with PU-H71 10 µM

Tubulin beta-4B chain (TUBB4B), sequence (P68371 whole entry): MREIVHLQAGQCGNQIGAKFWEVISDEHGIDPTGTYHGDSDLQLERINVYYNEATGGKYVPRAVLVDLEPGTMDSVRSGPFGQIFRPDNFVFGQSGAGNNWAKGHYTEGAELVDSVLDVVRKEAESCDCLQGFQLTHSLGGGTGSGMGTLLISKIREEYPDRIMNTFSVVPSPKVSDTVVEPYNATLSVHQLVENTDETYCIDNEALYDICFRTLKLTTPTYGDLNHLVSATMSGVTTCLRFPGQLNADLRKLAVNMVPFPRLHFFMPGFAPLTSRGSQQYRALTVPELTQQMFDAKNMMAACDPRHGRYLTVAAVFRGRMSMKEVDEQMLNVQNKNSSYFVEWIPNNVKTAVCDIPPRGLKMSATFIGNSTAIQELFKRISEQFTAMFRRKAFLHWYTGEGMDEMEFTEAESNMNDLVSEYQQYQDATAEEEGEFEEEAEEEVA
Tubulin beta-4B chain (TUBB4B), sequence (P68363 whole entry partner): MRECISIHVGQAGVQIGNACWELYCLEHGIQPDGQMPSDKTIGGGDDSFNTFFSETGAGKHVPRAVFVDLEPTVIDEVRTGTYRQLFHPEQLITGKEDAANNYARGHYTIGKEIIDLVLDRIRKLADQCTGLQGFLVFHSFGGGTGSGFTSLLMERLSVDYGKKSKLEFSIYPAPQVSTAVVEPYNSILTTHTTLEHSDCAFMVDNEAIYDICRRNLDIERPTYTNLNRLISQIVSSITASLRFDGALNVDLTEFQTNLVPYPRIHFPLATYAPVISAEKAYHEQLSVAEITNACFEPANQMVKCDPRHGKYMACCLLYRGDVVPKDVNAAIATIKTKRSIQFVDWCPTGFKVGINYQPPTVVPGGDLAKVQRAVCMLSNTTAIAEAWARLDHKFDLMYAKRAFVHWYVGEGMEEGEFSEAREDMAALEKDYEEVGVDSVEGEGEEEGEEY
Heat shock protein HSP 90-beta (HSP90AB1), sequence (P08238 whole entry): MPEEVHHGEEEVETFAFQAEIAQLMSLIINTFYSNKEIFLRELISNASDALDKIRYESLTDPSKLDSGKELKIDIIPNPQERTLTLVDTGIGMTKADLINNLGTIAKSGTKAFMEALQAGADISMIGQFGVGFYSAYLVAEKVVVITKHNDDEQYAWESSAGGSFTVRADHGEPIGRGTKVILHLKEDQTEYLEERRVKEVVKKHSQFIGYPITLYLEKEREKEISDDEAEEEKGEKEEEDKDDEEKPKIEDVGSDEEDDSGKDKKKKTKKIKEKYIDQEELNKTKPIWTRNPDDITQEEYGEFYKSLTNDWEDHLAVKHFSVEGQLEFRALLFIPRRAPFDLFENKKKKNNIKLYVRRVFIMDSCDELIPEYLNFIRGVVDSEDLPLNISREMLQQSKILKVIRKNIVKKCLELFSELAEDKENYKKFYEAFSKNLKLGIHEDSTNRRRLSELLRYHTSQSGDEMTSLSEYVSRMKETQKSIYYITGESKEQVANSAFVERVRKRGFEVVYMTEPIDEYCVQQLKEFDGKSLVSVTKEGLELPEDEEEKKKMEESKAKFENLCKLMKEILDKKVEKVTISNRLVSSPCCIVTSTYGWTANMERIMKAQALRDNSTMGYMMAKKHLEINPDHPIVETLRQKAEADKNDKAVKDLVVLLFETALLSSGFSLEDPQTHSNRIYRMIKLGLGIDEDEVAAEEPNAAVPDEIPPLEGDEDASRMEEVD
Tubulin alpha-1B chain (TUBA1B), sequence (P68363 whole entry): as the sequence (P68363 whole entry partner) above
Tubulin alpha-1B chain (TUBA1B), sequence (P07437 whole entry partner): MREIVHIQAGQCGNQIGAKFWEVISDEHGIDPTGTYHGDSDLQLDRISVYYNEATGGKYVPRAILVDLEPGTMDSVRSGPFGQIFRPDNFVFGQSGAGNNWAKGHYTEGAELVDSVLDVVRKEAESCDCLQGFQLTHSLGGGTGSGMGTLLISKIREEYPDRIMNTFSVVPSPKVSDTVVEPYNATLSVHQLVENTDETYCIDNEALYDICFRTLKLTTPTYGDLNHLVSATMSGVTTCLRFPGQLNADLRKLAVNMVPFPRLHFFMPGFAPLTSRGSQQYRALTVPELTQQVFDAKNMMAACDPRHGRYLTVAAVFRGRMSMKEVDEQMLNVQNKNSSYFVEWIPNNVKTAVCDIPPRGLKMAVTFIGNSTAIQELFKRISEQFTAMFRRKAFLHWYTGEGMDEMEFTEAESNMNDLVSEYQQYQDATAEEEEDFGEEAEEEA

For CC(=O)Oc1ccc2c(c1)Oc1cc(OC(C)=O)ccc1C21OC(=O)c2cc(C(=O)NCCOCCOCCNC(=O)CCCC(=O)N(CC#N)S(=O)(=O)c3ccc(C(=O)NCCCn4c(Sc5cc6c(cc5I)OCO6)nc5c(N)ncnc54)cc3)ccc21 [compound 11], the “Abundance Ratio: (11) / (11 with PU-H71)” value ([1]; Exp3, SLC25A6) was 0.576, the “Abundance Ratio: (11) / (DMSO)” value ([1]; Exp3, SLC25A6) was 5.78 and the “Abundances (Grouped): 11” value ([1]; Exp3, SLC25A6) was 626.5. The “Abundances (Grouped): 11 with PU-H71” value ([1]; Exp3, SLC25A6) was 1087.4, the “Abundance Ratio: (11) / (DMSO)” value [1, 5] was 5.287 and the “Abundance Ratio: (11) / (11 with PU-H71)” value [1, 6] was 0.613. The “Abundance Ratio: (11) / (11 with PU-H71)” value ([1]; sheet Exp2, SLC25A6) was 0.601, the “Abundance Ratio: (11) / (DMSO)” value ([1]; sheet Exp2, SLC25A6) was 6.595 and the “Abundances (Grouped): 11” value ([1]; sheet Exp2, SLC25A6) was 579. For the same compound, the “Abundances (Grouped): 11 with PU-H71” value ([1]; sheet Exp2, SLC25A6) was 963.9, the “Abundance Ratio: (11) / (DMSO)” value [1, 7] was 5.939 and the “Abundance Ratio: (11) / (11 with PU-H71)” value [1, 8] was 0.586. The “Abundance Ratio: (11) / (11 with PU-H71)” value ([2]; Exp3, HSP90AB1) was 3.363, the “Abundance Ratio: (11) / (DMSO)” value ([2]; Exp3, HSP90AB1) was 10.531 and the “Abundances (Grouped): 11” value ([2]; Exp3, HSP90AB1) was 3418.4. For the same compound, the “Abundances (Grouped): 11 with PU-H71” value ([2]; Exp3, HSP90AB1) was 1016.5, the “Abundance Ratio: (11) / (DMSO)” value [2, 5] was 8.2 and the “Abundance Ratio: (11) / (11 with PU-H71)” value [2, 6] was 3.253. For the same compound, the “Abundance Ratio: (11) / (11 with PU-H71)” value ([2]; sheet Exp2, HSP90AB1) was 3.262, the “Abundance Ratio: (11) / (DMSO)” value ([2]; sheet Exp2, HSP90AB1) was 9.509 and the “Abundances (Grouped): 11” value ([2]; sheet Exp2, HSP90AB1) was 4464.4. The “Abundances (Grouped): 11 with PU-H71” value ([2]; sheet Exp2, HSP90AB1) was 1368.7, the “Abundance Ratio: (11) / (DMSO)” value [2, 7] was 9.3 and 9.344 and the “Abundance Ratio: (11) / (11 with PU-H71)” value [2, 8] was 3.227. For the same compound, the “Abundance Ratio: (11) / (11 with PU-H71)” value ([3]; Exp3, TUBA1B) was 0.849, the “Abundance Ratio: (11) / (DMSO)” value ([3]; Exp3, TUBA1B) was 4.864 and the “Abundances (Grouped): 11” value ([3]; Exp3, TUBA1B) was 236.9. The “Abundances (Grouped): 11 with PU-H71” value ([3]; Exp3, TUBA1B) was 279, the “Abundance Ratio: (11) / (DMSO)” value [3, 5] was 6.965 and the “Abundance Ratio: (11) / (11 with PU-H71)” value [3, 6] was 0.862. The “Abundance Ratio: (11) / (11 with PU-H71)” value ([3]; sheet Exp2, TUBA1B) was 0.827, the “Abundance Ratio: (11) / (DMSO)” value ([3]; sheet Exp2, TUBA1B) was 7.231 and the “Abundances (Grouped): 11” value ([3]; sheet Exp2, TUBA1B) was 197.4. For the same compound, the “Abundances (Grouped): 11 with PU-H71” value ([3]; sheet Exp2, TUBA1B) was 238.8, the “Abundance Ratio: (11) / (DMSO)” value [3, 7] was 6.965 and the “Abundance Ratio: (11) / (11 with PU-H71)” value [3, 8] was 0.862. The “Abundance Ratio: (11) / (11 with PU-H71)” value ([4]; Exp3, TUBB4B) was 1.068, the “Abundance Ratio: (11) / (DMSO)” value ([4]; Exp3, TUBB4B) was 3.456 and the “Abundances (Grouped): 11” value ([4]; Exp3, TUBB4B) was 287.5. For the same compound, the “Abundances (Grouped): 11 with PU-H71” value ([4]; Exp3, TUBB4B) was 269.1, the “Abundance Ratio: (11) / (DMSO)” value [4, 5] was 3.652 and the “Abundance Ratio: (11) / (11 with PU-H71)” value [4, 6] was 1.046. The “Abundance Ratio: (11) / (11 with PU-H71)” value ([4]; sheet Exp2, TUBB4B) was 0.891, the “Abundance Ratio: (11) / (DMSO)” value ([4]; sheet Exp2, TUBB4B) was 2.612 and the “Abundances (Grouped): 11” value ([4]; sheet Exp2, TUBB4B) was 209.5. For the same compound, the “Abundances (Grouped): 11 with PU-H71” value ([4]; sheet Exp2, TUBB4B) was 235, the “Abundance Ratio: (11) / (DMSO)” value [4, 7] was 3.477 and the “Abundance Ratio: (11) / (11 with PU-H71)” value [4, 8] was 1.054.
